From PubChem BioAssay (NCI)
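Following 48 hours of exposure in 96-well plates, responses at five concentrations were used to interpolate endpoints linearly. The concentration for 50% growth inhibition is given as GI50. At the TGI there is no net growth.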

Key:
Assay in all cases: NCI-60 cell line screen, 48 h
786-0 renal = system: 786-0 renal
A498 renal = system: A498 renal
A549 NSCLC = system: A549 NSCLC
ACHN renal = system: ACHN renal
CAKI-1 renal = system: CAKI-1 renal
CCRF-CEM leukemia = system: CCRF-CEM leukemia
COLO 205 colon = system: COLO 205 colon
DU-145 prostate = system: DU-145 prostate
EKVX NSCLC = system: EKVX NSCLC
HCC-2998 colon = system: HCC-2998 colon
HCT-116 colon = system: HCT-116 colon
HCT-15 colon = system: HCT-15 colon
HL-60(TB) leukemia = system: HL-60(TB) leukemia
HOP-62 NSCLC = system: HOP-62 NSCLC
HOP-92 NSCLC = system: HOP-92 NSCLC
HS 578T breast = system: HS 578T breast
HT29 colon = system: HT29 colon
IGROV1 ovarian = system: IGROV1 ovarian
K-562 leukemia = system: K-562 leukemia
KM12 colon = system: KM12 colon
LOX IMVI melanoma = system: LOX IMVI melanoma
M14 melanoma = system: M14 melanoma
MALME-3M melanoma = system: MALME-3M melanoma
MCF7 breast = system: MCF7 breast
MDA-MB-231 breast = system: MDA-MB-231 breast
MDA-MB-435 = system: MDA-MB-435
MDA-N = system: MDA-N
MOLT-4 leukemia = system: MOLT-4 leukemia
NCI-H226 lung = system: NCI-H226 lung
NCI-H23 lung = system: NCI-H23 lung
NCI-H460 lung = system: NCI-H460 lung
NCI-H522 lung = system: NCI-H522 lung
NCI/ADR-RES ovarian = system: NCI/ADR-RES ovarian
OVCAR-3 ovarian = system: OVCAR-3 ovarian
OVCAR-4 ovarian = system: OVCAR-4 ovarian
OVCAR-5 ovarian = system: OVCAR-5 ovarian
OVCAR-8 ovarian = system: OVCAR-8 ovarian
PC-3 prostate = system: PC-3 prostate
RPMI-8226 leukemia = system: RPMI-8226 leukemia
RXF 393 renal = system: RXF 393 renal
SF-268 CNS = system: SF-268 CNS
SF-295 CNS = system: SF-295 CNS
SF-539 CNS = system: SF-539 CNS
SK-MEL-2 melanoma = system: SK-MEL-2 melanoma
SK-MEL-28 melanoma = system: SK-MEL-28 melanoma
SK-MEL-5 melanoma = system: SK-MEL-5 melanoma
SK-OV-3 ovarian = system: SK-OV-3 ovarian
SN12C renal = system: SN12C renal
SNB-19 CNS = system: SNB-19 CNS
SNB-75 CNS = system: SNB-75 CNS
SR leukemia = system: SR leukemia
SW-620 colon = system: SW-620 colon
T-47D breast = system: T-47D breast
TK-10 renal = system: TK-10 renal
U251 CNS = system: U251 CNS
UACC-257 melanoma = system: UACC-257 melanoma
UACC-62 melanoma = system: UACC-62 melanoma
UO-31 renal = system: UO-31 renal
BT-549 breast = system: BT-549 breast

With `Clc1ncc(Cl)c(Cl)n1` the TGI (786-0 renal) was 7.49 µM, the TGI (A498 renal) was 40.2 µM and the TGI (A549 NSCLC) was 28.8 µM. The TGI (ACHN renal) was 3.63 µM, the TGI (CAKI-1 renal) was 3.25 µM and the TGI (CCRF-CEM leukemia) was over 100 µM. For the same molecule, the TGI (COLO 205 colon) was 3.3 µM, the TGI (DU-145 prostate) was 24.1 µM and the TGI (EKVX NSCLC) was 30.3 µM. For the same molecule, the TGI (HCC-2998 colon) was 15.1 µM, the TGI (HCT-116 colon) was 8.01 µM and the TGI (HCT-15 colon) was 5.99 µM. The TGI (HL-60(TB) leukemia) was 2.36 µM, the TGI (HOP-62 NSCLC) was 39.4 µM and the TGI (HOP-92 NSCLC) was 3.43 µM. The TGI (HS 578T breast) was 14.9 µM, the TGI (HT29 colon) was 3.02 µM and the TGI (IGROV1 ovarian) was 23.3 µM. The TGI (K-562 leukemia) was 4.08 µM, the TGI (KM12 colon) was 22.9 µM and the TGI (LOX IMVI melanoma) was 3.22 µM. For the same molecule, the TGI (M14 melanoma) was 10.6 µM, the TGI (MALME-3M melanoma) was 3.75 µM and the TGI (MCF7 breast) was 4.8 µM. The TGI (MDA-MB-231 breast) was 7.82 µM, the TGI (MDA-MB-435) was 7.52 µM and the TGI (MDA-N) was 11 µM. It also gave a TGI (MOLT-4 leukemia) of 4.31 µM, a TGI (NCI-H226 lung) of 19 µM and a TGI (NCI-H23 lung) of 42.3 µM. The TGI (NCI-H460 lung) was over 100 µM, the TGI (NCI-H522 lung) was 5.69 µM and the TGI (NCI/ADR-RES ovarian) was 20.5 µM. For the same molecule, the TGI (OVCAR-3 ovarian) was 14.3 µM, the TGI (OVCAR-4 ovarian) was 3.53 µM and the TGI (OVCAR-5 ovarian) was 34.2 µM. It also gave a TGI (OVCAR-8 ovarian) of 19.3 µM, a TGI (PC-3 prostate) of 5.64 µM and a TGI (RPMI-8226 leukemia) of 6.47 µM. The TGI (RXF 393 renal) was 5.46 µM, the TGI (SF-268 CNS) was 20.5 µM and the TGI (SF-295 CNS) was 26.6 µM. For the same molecule, the TGI (SF-539 CNS) was 24.6 µM, the TGI (SK-MEL-2 melanoma) was 6.08 µM and the TGI (SK-MEL-28 melanoma) was 10.9 µM. The TGI (SK-MEL-5 melanoma) was 12.7 µM, the TGI (SK-OV-3 ovarian) was 14.3 µM and the TGI (SN12C renal) was 5.91 µM. For the same molecule, the TGI (SNB-19 CNS) was 10.3 µM, the TGI (SNB-75 CNS) was 9.98 µM and the TGI (SR leukemia) was 5.62 µM. The TGI (SW-620 colon) was 2.94 µM, the TGI (T-47D breast) was 10 µM and the TGI (TK-10 renal) was 23.1 µM. The TGI (U251 CNS) was 11.2 µM, the TGI (UACC-257 melanoma) was 14.3 µM and the TGI (UACC-62 melanoma) was 4.42 µM. For the same molecule, the TGI (UO-31 renal) was 7.17 µM.

`COc1ccc2c(c1)C1(C(=O)N2)C(C#N)=C(c2ccccc2)Nc2c1c(-c1ccccc1)nn2-c1ccccc1` (configuration not stated) gave a GI50 (786-0 renal) of 2.03 µM, a TGI (786-0 renal) of 4.94 µM and a GI50 (A498 renal) of 1.61 µM. It also gave a TGI (A498 renal) of 4.35 µM, a GI50 (A549 NSCLC) of 2.49 µM and a TGI (A549 NSCLC) of 5.55 µM. It also gave a GI50 (ACHN renal) of 6.16 µM, a TGI (ACHN renal) of 19.4 µM and a GI50 (BT-549 breast) of 2.28 µM. It also gave a TGI (BT-549 breast) of 8.03 µM, a GI50 (CCRF-CEM leukemia) of 2.9 µM and a TGI (CCRF-CEM leukemia) of 10.4 µM. It also gave a GI50 (COLO 205 colon) of 2.42 µM, a TGI (COLO 205 colon) of 5.83 µM and a GI50 (DU-145 prostate) of 2.71 µM. The TGI (DU-145 prostate) was 6.82 µM, the GI50 (EKVX NSCLC) was 4.44 µM and the TGI (EKVX NSCLC) was 22.2 µM. For the same molecule, the GI50 (HCC-2998 colon) was 3.51 µM, the TGI (HCC-2998 colon) was 12.5 µM and the GI50 (HCT-116 colon) was 1.66 µM. It also gave a TGI (HCT-116 colon) of 3.02 µM, a GI50 (HCT-15 colon) of 11 µM and a TGI (HCT-15 colon) of 26.8 µM. For the same molecule, the GI50 (HL-60(TB) leukemia) was 3.68 µM, the TGI (HL-60(TB) leukemia) was 15.4 µM and the GI50 (HOP-62 NSCLC) was 2.28 µM. For the same molecule, the TGI (HOP-62 NSCLC) was 7.07 µM, the GI50 (HOP-92 NSCLC) was 2.34 µM and the TGI (HOP-92 NSCLC) was 6.34 µM. For the same molecule, the GI50 (HS 578T breast) was 4.1 µM, the TGI (HS 578T breast) was 19.3 µM and the GI50 (HT29 colon) was 2.34 µM. For the same molecule, the TGI (HT29 colon) was 5.82 µM, the GI50 (IGROV1 ovarian) was 3.57 µM and the TGI (IGROV1 ovarian) was 16.4 µM. It also gave a GI50 (K-562 leukemia) of 4.6 µM, a TGI (K-562 leukemia) of 22.9 µM and a GI50 (KM12 colon) of 2.66 µM. It also gave a TGI (KM12 colon) of 7.26 µM, a GI50 (LOX IMVI melanoma) of 1.81 µM and a TGI (LOX IMVI melanoma) of 3.51 µM. The GI50 (M14 melanoma) was 2.44 µM, the TGI (M14 melanoma) was 7.32 µM and the GI50 (MALME-3M melanoma) was 1.73 µM. It also gave a TGI (MALME-3M melanoma) of 3.84 µM, a GI50 (MCF7 breast) of 2.09 µM and a TGI (MCF7 breast) of 6.79 µM. For the same molecule, the GI50 (MDA-MB-231 breast) was 2.33 µM, the TGI (MDA-MB-231 breast) was 5.81 µM and the GI50 (MDA-MB-435) was 2.16 µM. It also gave a TGI (MDA-MB-435) of 5.29 µM, a GI50 (MOLT-4 leukemia) of 3.37 µM and a TGI (MOLT-4 leukemia) of 11 µM. The GI50 (NCI-H226 lung) was 3.8 µM, the TGI (NCI-H226 lung) was 16.4 µM and the GI50 (NCI-H23 lung) was 2.51 µM. The TGI (NCI-H23 lung) was 7.51 µM, the GI50 (NCI-H460 lung) was 1.98 µM and the TGI (NCI-H460 lung) was 3.75 µM. The GI50 (NCI-H522 lung) was 3.75 µM, the TGI (NCI-H522 lung) was 18.3 µM and the GI50 (NCI/ADR-RES ovarian) was 31.9 µM. For the same molecule, the TGI (NCI/ADR-RES ovarian) was over 100 µM, the GI50 (OVCAR-3 ovarian) was 1.95 µM and the TGI (OVCAR-3 ovarian) was 3.39 µM. For the same molecule, the GI50 (OVCAR-4 ovarian) was 1.77 µM, the TGI (OVCAR-4 ovarian) was 3.5 µM and the GI50 (OVCAR-5 ovarian) was 5.46 µM. It also gave a TGI (OVCAR-5 ovarian) of 19.8 µM, a GI50 (OVCAR-8 ovarian) of 3.54 µM and a TGI (OVCAR-8 ovarian) of 12.7 µM. It also gave a GI50 (PC-3 prostate) of 1.98 µM, a TGI (PC-3 prostate) of 3.67 µM and a GI50 (RPMI-8226 leukemia) of 4.07 µM. It also gave a TGI (RPMI-8226 leukemia) of 17.8 µM, a GI50 (RXF 393 renal) of 1.93 µM and a TGI (RXF 393 renal) of 5.3 µM. For the same molecule, the GI50 (SF-268 CNS) was 4.9 µM, the TGI (SF-268 CNS) was 17.9 µM and the GI50 (SF-295 CNS) was 8.86 µM. The TGI (SF-295 CNS) was 21.1 µM, the GI50 (SF-539 CNS) was 1.75 µM and the TGI (SF-539 CNS) was 3.65 µM. It also gave a GI50 (SK-MEL-2 melanoma) of 6.47 µM, a TGI (SK-MEL-2 melanoma) of 21.8 µM and a GI50 (SK-MEL-28 melanoma) of 2.21 µM. It also gave a TGI (SK-MEL-28 melanoma) of 5.4 µM, a GI50 (SK-MEL-5 melanoma) of 2.4 µM and a TGI (SK-MEL-5 melanoma) of 6.62 µM. It also gave a GI50 (SK-OV-3 ovarian) of 2.08 µM, a TGI (SK-OV-3 ovarian) of 5.14 µM and a GI50 (SN12C renal) of 1.94 µM. The TGI (SN12C renal) was 3.71 µM, the GI50 (SNB-19 CNS) was 3.95 µM and the TGI (SNB-19 CNS) was 15 µM. The GI50 (SNB-75 CNS) was 1.39 µM, the TGI (SNB-75 CNS) was 3.43 µM and the GI50 (SR leukemia) was 3.08 µM. It also gave a TGI (SR leukemia) of 8.65 µM, a GI50 (SW-620 colon) of 1.98 µM and a TGI (SW-620 colon) of 4.23 µM. For the same molecule, the GI50 (T-47D breast) was 2.94 µM, the TGI (T-47D breast) was 12.5 µM and the GI50 (TK-10 renal) was 2.41 µM. For the same molecule, the TGI (TK-10 renal) was 7.49 µM, the GI50 (U251 CNS) was 2.8 µM and the TGI (U251 CNS) was 7.12 µM. For the same molecule, the GI50 (UACC-257 melanoma) was 16 µM, the TGI (UACC-257 melanoma) was 31.5 µM and the GI50 (UACC-62 melanoma) was 5.36 µM. The TGI (UACC-62 melanoma) was 18.2 µM, the GI50 (UO-31 renal) was 15.8 µM and the TGI (UO-31 renal) was 30.1 µM.
